Data on 31 compounds can be found in patent US9776979B2, “EBI2 modulators” (Sanford-Burnham Medical Research Institute, priority 2013, dated 2017).

Usually pIC50 stands for −log10 of the IC50, conventionally taken in molar units.

pIC50: −log10 of the molar value. Bounds are passed on as bounds.

Sequence of EBI2 (P32249 whole entry): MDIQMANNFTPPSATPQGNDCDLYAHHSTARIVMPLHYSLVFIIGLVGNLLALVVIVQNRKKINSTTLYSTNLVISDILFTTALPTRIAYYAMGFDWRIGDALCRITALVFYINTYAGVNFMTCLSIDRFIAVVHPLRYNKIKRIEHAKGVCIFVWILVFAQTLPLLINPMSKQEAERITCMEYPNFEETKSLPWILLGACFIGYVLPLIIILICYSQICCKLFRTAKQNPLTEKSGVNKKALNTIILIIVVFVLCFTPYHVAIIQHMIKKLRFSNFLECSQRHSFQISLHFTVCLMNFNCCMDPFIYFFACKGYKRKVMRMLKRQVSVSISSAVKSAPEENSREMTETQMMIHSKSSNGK

One test addresses EBI2 (Homo sapiens, UniProt P32249). Kind of test: Cell-based luminescent assay (EBI2 modulation).
Conditions: not given
The gist of the method: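 Cells plated overnight at 37° C, then exposed to compound at 4-5 uM final with 80 nM 7a,25-OHC agonist for 60 min at 37° C. Luminescence read after 60 min detection at 25° C in the dark; values normalized to neutral and stimulator controls and plate-pattern corrected.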
`O=C(/C=C/c1ccc(Br)cc1)N1CCN(Cc2ccc(Cl)cc2)CC1` [Compound D1, (E)-3-(4-bromophenyl)-1-(4-(4-chlorobenzyl)piperazin-1-yl) prop-2-en-1-one] gave a pIC50 greater than 7.00. `Cc1cccc(CN2CCN(C(=O)/C=C/c3ccccc3)CC2)c1` [Compound C201, (2E)-1-{4-[(3-methylphenyl)methyl]piperazinyl}-3-phenylprop-2-en-1-one] had a pIC50 greater than 7.00.

Still in this test, the particulars now being: cell-based luminescence; 7a,25-OHC final assay concentration 80 nM; 60 minutes incubation; read-out: IC50.
Take “4,6-dichloroindol-2-yl 4-(diphenylmethyl)piperazinyl ketone [Compound C250]”: the negative-log IC50 (pIC50) is greater than 7.00.

As to “5-bromoindol-2-yl 4-[(4-chlorophenyl)methyl]piperazinyl ketone [Compound C303]”, the pIC50 is greater than 7.00. With `O=C(c1cccc(B(O)O)c1)N1CCN(C(=O)c2cc3cc(Cl)ccc3[nH]2)CC1` [Compound C440, 3-(4-(5-chloro-1H-indole-2-carbonyl)piperazine-1-carbonyl)phenylboronic acid], the pIC50 is 6.30 to 7.00. Regarding `CC(C)CN1CCN(C(=O)/C=C/c2ccccc2)CC1` [Compound C392, (2E)-1-[4-(methylpropyl)piperzinyl]-3-phenylprop-2-en-1-one], the pIC50 is greater than 7.00.

For the compound `O=C(c1ccc(C(F)(F)F)c(F)c1)N1CCN(C(=O)c2cc3ccc(Br)cc3[nH]2)CC1` [Compound C329, 6-bromoindol-2-yl 4-{[3-fluoro-4-(trifluoromethyl)phenyl]carbonyl}piperazinyl ketone], the pIC50 is greater than 7.00. For `O=C(c1cccc(Cl)c1)N1CCN(C(=O)c2cc3cc(C(F)(F)F)ccc3[nH]2)CC1` [Compound C127, 4-[(3-chlorophenyl)carbonyl]piperazinyl 5-(trifluoromethyl)indol-2-yl ketone], the pIC50 is greater than 7.00.

Turning to `O=C(C#Cc1ccc(F)cc1)N1CCN(C(=O)c2ccc(Cl)cc2)CC1` [Compound C69, 1-{4-[(4-chlorophenyl)carbonyl]piperazinyl}-3-(4-fluorophenyl)prop-2-yn-1-one], the pIC50 is greater than 7.00. Consider `O=C(C#Cc1cccc(Cl)c1Cl)N1CCN(C(=O)c2ccc(C(F)(F)F)cc2)CC1` [Compound C132, 3-(2,3-dichlorophenyl)-1-(4-{[4-(trifluoromethyl)phenyl]carbonyl}piperazinyl)prop-2-yn-1-one], for which the pIC50 is greater than 7.00. In the case of `CCCCN1CCN(C(=O)/C=C/c2ccccc2)CC1` [Compound C312, (2E)-1-(4-butylpiperazinyl)-3-phenylprop-2-en-1-one], the pIC50 is greater than 7.00. For `COc1ccc(C(=O)N2CCN(C(=O)C=Cc3ccc(Cl)c(Cl)c3)CC2)cc1` [Compound C11, 3-(3,4-dichlorophenyl)-1-{4-[(4-methoxyphenyl)carbonyl]piperazinyl}prop-2-en-1-one], the pIC50 is greater than 7.00. As for “(2E)-3-phenyl-1-piperazinylprop-2-en-1-one [Compound C444]”, the pIC50 is 6.30 to 7.00. Regarding `Cc1ccc2[nH]c(C(=O)N3CCN(S(=O)(=O)CCc4ccccc4)CC3)cc2c1` [Compound C57, 5-methylindol-2-yl 4-[(2-phenylethyl)sulfonyl]piperazinyl ketone], the pIC50 is greater than 7.00. `O=C(CCc1ccc(F)cc1)N1CCN(S(=O)(=O)/C=C/c2ccccc2)CC1` [Compound C406, 1-{4-[((1E)-2-phenylvinyl)sulfonyl]piperazinyl}-3-(4-fluorophenyl)propan-1-one]: the pIC50 was 6.30 to 7.00. For `O=C(c1cc2cc(C(F)(F)F)ccc2s1)N1CCN(C(c2ccccc2)c2ccccc2)CC1` [Compound C142, 4-(diphenylmethyl)piperazinyl 5-(trifluoromethyl)benzo[b]thiophen-2-yl ketone], the pIC50 was greater than 7.00.

With `O=C(c1ccc2nc(C(F)(F)F)[nH]c2c1)N1CCN(C(=O)c2cc3cc(Cl)ccc3[nH]2)CC1` [Compound C183, 5-chloroindol-2-yl 4-{[2-(trifluoromethyl)benzimidazol-5-yl]carbonyl}piperazinyl ketone], the pIC50 was 5.30 to 6.30. For the compound `O=C(C#Cc1ccccc1)N1CCN(C(=O)c2ccc(F)cc2)CC1` [Compound C116, 1-{4-[(4-fluorophenyl)carbonyl]piperazinyl}-3-phenylprop-2-yn-1-one], the pIC50 was greater than 7.00. With `O=C(/C=C/c1ccccc1)N1CCN(C(c2ccccc2)c2ccccc2)CC1` [Compound C42, (2E)-1-[4-(diphenylmethyl)piperazinyl]-3-phenylprop-2-en-1-one], the pIC50 was greater than 7.00.

Consider `O=C(/C=C/c1ccc(F)cc1)N1CCN(S(=O)(=O)c2cccc(Cl)c2)CC1` [Compound C138, (2E)-1-{4-[(3-chlorophenyl)sulfonyl]piperazinyl}-3-(4-fluorophenyl)prop-2-en-1-one], for which the pIC50 was greater than 7.00. As for `O=Cc1ccc(C(=O)N2CCN(C(=O)c3cc4cc(Cl)ccc4[nH]3)CC2)cc1` [Compound C397, 4-({4-[(5-chloroindol-2-yl)carbonyl]piperazinyl}carbonyl)benzaldehyde], the pIC50 is greater than 7.00.

`O=C(/C=C/c1ccc(Cl)c(Cl)c1)N1CCN(C(=O)c2ccc(C(F)(F)F)cc2)CC1` [Compound C6, (2E)-3-(3,4-dichlorophenyl)-1-(4-{[4-(trifluoromethyl)phenyl]carbonyl}piperazinyl) prop-2-en-1-one]: the pIC50 is greater than 7.00. Same read-out and setting: under `CN(C)c1ccc(/C=C/C(=O)N2CCN(C(c3ccccc3)c3ccccc3)CC2)cc1` [Compound C233, (2E)-3-[4-(dimethylamino)phenyl]-1-[4-(diphenylmethyl)piperazinyl]prop-2-en-1-one] stands greater than 7.00; under `O=C(Nc1ccc(F)cc1F)N1CCN(C(=O)c2cc3cc(Cl)ccc3[nH]2)CC1` [Compound C477, N-(2,4-difluorophenyl){4-[(5-chloroindol-2-yl)carbonyl]piperazinyl}carboxamide], 6.30 to 7.00; under `O=C(C#Cc1cccc(Cl)c1Cl)N1CCN(Cc2ccc(F)cc2C(F)(F)F)CC1` [Compound C141, 3-(2,3-dichlorophenyl)-1-(4-{[4-fluoro-2-(trifluoromethyl)phenyl]methyl}piperazinyl)prop-2-yn-1-one], greater than 7.00. With `O=C(c1ccc(C(F)(F)F)cc1)N1CCN(C(=O)c2cc3ccc(F)cc3[nH]2)CC1` [Compound C292, 6-fluoroindol-2-yl 4-{[4-(trifluoromethyl)phenyl]carbonyl}piperazinyl ketone], the pIC50 was 6.30 to 7.00. Consider `O=C(/C=C/c1ccc(C(F)(F)F)cc1)N1CCN(C(c2ccccc2)c2ccccc2)CC1` [Compound C29, (2E)-1-[4-(diphenylmethyl)piperazinyl]-3-[4-(trifluoromethyl)phenyl]prop-2-en-1-one], for which the pIC50 is greater than 7.00.

For “3-(2,4-difluorophenyl)-1-{4-[(4-fluorophenyl)carbonyl]piperazinyl}prop-2-yn-1-one [Compound C424]”, the pIC50 was 6.30 to 7.00.

With `O=C(c1cc2cc(Cl)ccc2[nH]1)N1CCC(Oc2ccc(F)cc2)CC1` [Compound C315, 5-chloroindol-2-yl 4-(4-fluorophenoxy)piperidyl ketone], the negative logarithm of the IC50 (pIC50) is greater than 7.00.

Consider `Cc1cc2[nH]c(C(=O)N3CCN(C(c4ccccc4)c4ccccc4)CC3)cc2s1` [Compound C228, 4-(diphenylmethyl)piperazinyl 2-methylthiopheno[2,3-d]pyrrol-5-yl ketone], for which the pIC50 is greater than 7.00.

As for `O=C(/C=C/c1ccc(Br)cc1)N1CCC(CNCc2ccc(C(F)(F)F)cc2)CC1` [Compound F2], the pIC50 is greater than 7.00.
